Test results taken from the NIST ThermoML archive (doi:10.1016/j.jct.2018.12.025).
± gives the expanded uncertainty stated by the source.

Test: relative permittivity at various frequencies (dimensionless)
Details: 96.5 kPa, Liquid, Frequency=1 MHz, Parallel plate capacitor

O [water]
Details | relative permittivity
298.15 K | 79.68 ± 3
308.15 K | 75.51 ± 2.8
318.15 K | 71.42 ± 2.7
328.15 K | 68.44 ± 2.6
338.15 K | 64.51 ± 2.4
348.15 K | 60.78 ± 2.3
